In test [1] the target is T1, Proteasome Macropain subunit MB1 (Homo sapiens, UniProt P28074).
T1 sequence (P28074 whole entry): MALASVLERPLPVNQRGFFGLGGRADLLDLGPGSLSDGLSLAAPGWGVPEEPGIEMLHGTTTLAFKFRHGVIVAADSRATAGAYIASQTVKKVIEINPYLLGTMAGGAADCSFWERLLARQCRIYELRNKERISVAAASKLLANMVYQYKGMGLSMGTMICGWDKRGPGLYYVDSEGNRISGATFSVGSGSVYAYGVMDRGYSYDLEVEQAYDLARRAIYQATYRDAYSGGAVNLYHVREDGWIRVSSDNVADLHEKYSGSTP
The test is described as follows: Inhibition of proteasome beta-5 (unknown origin).

Test [2] in a line: Cytotoxicity against human MM1S cells. The format is functional, cell-based. The settings on record: MM1.S.
A further test deals with A-431. The test is described as follows: Antiproliferative activity against human A431 cells after 72 hrs by oxyluciferin luminescence assay. The following applies: A-431, 72 h.
The next test concerns HCT-116. The test is described as follows: Antiproliferative activity against human HCT116 cells after 72 hrs by oxyluciferin luminescence assay. The following applies: HCT-116, 72 h.
A further test concerns RKO. The test is described as follows: Antiproliferative activity against human RKO cells after 72 hrs by oxyluciferin luminescence assay.
Test [3] can be described thus: Antiproliferative activity against human TOV21G cells after 72 hrs by oxyluciferin luminescence assay.
For a further test, the system named is CCRF-CEM. The experiment in a line: Antiproliferative activity against human CCRF-CEM cells after 72 hrs by oxyluciferin luminescence assay.
Test [4] in a line: Antiproliferative activity against human RPMI8266 cells after 72 hrs by oxyluciferin luminescence assay. The following applies: RPMI8266, 72 h.
A short description of test [5]: Cytotoxicity against human RPMI8266 cells.

This is an account of results in ChEMBL document CHEMBL3627672, “Structure-activity relationship study of syringolin A as a potential anticancer agent” (Bioorg Med Chem Lett, 2015).

Broadly, the Ki is the equilibrium dissociation constant of an inhibitor or competing ligand from its target. In general, IC50 refers to the point on the concentration scale where inhibition reaches its midpoint. A high value points to a need for much substance.

In the case of `CC(C)[C@H](NC(=O)N[C@H](C(=O)N[C@H]1/C=C/CCNC(=O)/C=C/[C@H](C(C)C)NC1=O)C(C)C)C(=O)O`, the Ki in [1] came to 0.843 µM. Further, the IC50 in test [2] was determined as 8.5 µM.

As to `CCCCCCCCCC(=O)N[C@@H](Cc1ccco1)C(=O)N[C@H]1/C=C/CCNC(=O)/C=C/[C@H](C(C)C)NC1=O`, the IC50 in the test on A-431 came out at 0.0297 µM; in the test on HCT-116, 0.0267 µM; in the test on RKO it was 0.0201 µM; in [3] it was 0.0223 µM; with CCRF-CEM, 0.0249 µM; in [4] it was 0.0241 µM.

As to `CCCCCCCCCC(=O)N[C@@H](Cc1cccs1)C(=O)N[C@H]1/C=C/CCNC(=O)/C=C/[C@H](C(C)C)NC1=O`, the IC50 with A-431 was 0.0187 µM; with HCT-116 it was 0.0155 µM; with RKO, 0.0208 µM; in [3], 0.0167 µM; in the test on CCRF-CEM, 0.011 µM; in [4], 0.0144 µM.

For `CCCCCCCCCC(=O)N[C@@H](Cc1ccsc1)C(=O)N[C@H]1/C=C/CCNC(=O)/C=C/[C@H](C(C)C)NC1=O`, the IC50 with A-431 is 0.015 µM; in the test with HCT-116, 0.0091 µM; in the test on RKO it was 0.0113 µM; in test [3] it was 0.0102 µM; with CCRF-CEM it was 0.0042 µM; in test [4], 0.0057 µM.

Take `CCCCCCCCCC(=O)N[C@@H](Cc1c[nH]c2ccccc12)C(=O)N[C@H]1/C=C/CCNC(=O)/C=C/[C@H](C(C)C)NC1=O`: the IC50 was found to be 0.0455 µM with A-431; 0.0445 µM with HCT-116; 0.0394 µM in the test on RKO; 0.0135 µM in [3]; 0.0168 µM in the test with CCRF-CEM; 0.0275 µM in [4].

Consider `CCCCCCCCCC(=O)N(C)[C@@H](Cc1ccccc1)C(=O)N[C@H]1/C=C/CCNC(=O)/C=C/[C@H](C(C)C)NC1=O`, for which the IC50 is above 1 µM in the test on A-431; above 1 µM with HCT-116; above 1 µM in the test with RKO; above 1 µM in test [3]; 0.197 µM in the test on CCRF-CEM; above 1 µM in [4].

Turning to `CCCCCCCCCC(=O)N1CCC[C@]1(Cc1ccccc1)C(=O)N[C@H]1/C=C/CCNC(=O)/C=C/[C@H](C(C)C)NC1=O`, the IC50 (with A-431; with HCT-116; with RKO; in test [3]; in the test on CCRF-CEM; in [4]) was above 1 µM each time.

`CCCCCCCCCC(=O)N[C@H](CC(=O)N[C@H]1/C=C/CCNC(=O)/C=C/[C@H](C(C)C)NC1=O)Cc1ccccc1`: the IC50 in the test on A-431 amounted to 0.191 µM; with HCT-116, 0.433 µM; in the test with RKO it was 0.244 µM; in [3] it was 0.212 µM; in the test with CCRF-CEM it was 0.221 µM; in test [4] it was 0.255 µM.

Turning to `CCCCCCCCCC(=O)N[C@@H](Cc1ccccc1)C(=O)N[C@H]1/C=C/CCNC(=O)/C=C/[C@H](C(C)C)NC1=O`, the IC50 in test [5] was found to be 0.0022 µM; in the test with A-431, 0.0141 µM; with HCT-116, 0.0126 µM; in the test on RKO it was 0.0118 µM; in test [3] it was 0.0123 µM; with CCRF-CEM, 0.0043 µM. The midpoint of inhibition in [4], the IC50, lay at 0.009 µM.

Turning to `CC(C)C[C@H](NC(=O)[C@H](Cc1ccccc1)NC(=O)c1cnccn1)B(O)O` [BORTEZOMIB], the IC50 was 0.0282 µM in the test on A-431; 0.027 µM in the test on HCT-116; 0.0208 µM in the test on RKO; 0.0167 µM in test [3]; 0.011 µM in the test with CCRF-CEM; 0.0144 µM in test [4].

Regarding `CC(C)C[C@H](NC(=O)[C@H](CCc1ccccc1)NC(=O)CN1CCOCC1)C(=O)N[C@@H](Cc1ccccc1)C(=O)N[C@@H](CC(C)C)C(=O)[C@@]1(C)CO1` [CARFILZOMIB], the IC50 was 0.0238 µM in the test with A-431; 0.0193 µM in the test with HCT-116; 0.0271 µM in the test on RKO; 0.0238 µM in [3]; 0.0061 µM with CCRF-CEM; 0.0139 µM in test [4].
